Measured values as given in patent US20050143296A1, “Extraction and utilization of cell growth-promoting peptides from silk protein” (priority 2003, published 2005).
Entries after “also recorded” stand apart in the source; their conditions may differ. Where a SMILES comes first, the peptide text is derived from it. Where no end group is shown, it is not given here.

How the values were obtained:
human skin fibroblasts [1] = test: Growth of human skin fibroblasts in dishes coated with silk fractions or peptides (low serum medium with LSGS, Alamer Blue viable cell number); assay type: cell-based; settings: for Growth rate (%): control = 100; for cell growth promotion (in words): human skin fibroblasts in coated dishes, compared to control without peptide
Experimental: Only 1 ml of 70% ethanol was added to dishes for control.
The cells used were human skin fibroblasts (originating from adult normal skin) purchased (frozen) from Sanko Junyaku Co., Ltd.
The medium was added at 2 ml per dish, and 80,000 cells were inoculated and cultured for 3 days.
The medium at 2 ml per dish and Alamer Blue (Iwaki Glass Co.) at 0.1 ml per dish were added and cultured for 2 hours at 37 degrees C., and then the reduced amount of Alamer Blue dye calculated from the absorbances at 570 nm and 600 nm was correlated with viable cell number.
Control dishes contained only 70% ethanol at 1 ml, followed by air-drying.
About 1 mg each of the synthetic peptides was dissolved in 200 μl of PBS.
The cells used were human skin fibroblasts (originating from adult normal skin) purchased (frozen) from Sanko Junyaku Co. Ltd.
The culture medium used was the low serum culture medium for human skin fibroblast growth purchased from Kurabo Industries Ltd.
The medium was added at 2 ml per dish, and ca. 80,000 cells were inoculated and cultured for 3 days.
Then, 0.1 ml of Alamer Blue (Iwaki Glass Co.) was added and cultured for 2 hours at 37 degrees C., and the reduced amount of Alamer Blue calculated from the absorbances at 570 nm and 600 nm was correlated with viable cell number.

human skin fibroblasts [2] = test: Adhesion of human skin fibroblasts after 5 hours in peptide-coated dishes (Medium 106S without LSGS); assay type: cell-based; settings: Table 8; 5 hour-culture; peptide 0.025 μg/cm^2; no LSGS; no peptide = 100
Experimental: (§1) This method partly differs from the method in (3) Cell culture of Example 1.
(§2) In the present cell culture, the cells used were human skin fibroblasts (originating from adult normal skin) purchased (frozen) from Sanko Junyaku Co. Ltd.
(§3) The culture medium used was the low serum culture medium for human skin fibroblast growth purchased from Kurabo Industries Ltd. (Medium 106S 500 ml).
(§4) The medium 106S is a basal medium for skin fibroblasts.
(§5) LSGS (low serum growth supplement) was not used here.
In the measurement of adhesion, the cells floating in the medium at 5 hours after inoculation of cells into the medium were removed, and the viable cell number adhering to the bottom of a dish was measured.
(§6) Besides the cell culture method, coating of peptides on cell culture dishes, measurement of viable cell number with Alamer Blue dye, and the like were carried out as described in Example 1.
(§7) In this case, the concentration of each peptide coated on dishes was 0.025 μg/cm^2.
The adhesion rate (%) in the case where no peptide was coated was set at 100.

[3] = Dissolution of synthetic peptides in PBS for coating; assay type: physicochemical; settings: about 1 mg peptide in 200 μl of PBS
Experimental: About 1 mg each of the synthetic peptides was dissolved in 200 μl of PBS. The dissolved peptide solutions were diluted with 70% ethanol to adjust to 0.025% and 0.0025% concentrations, and 1 ml each of these solutions were put in dishes and dried.
70% ethanol, put in a dish and dried.

human skin fibroblasts [4] = test: Proliferation of human skin fibroblasts after 3-day culture in peptide-coated dishes (Medium 106S without LSGS); assay type: cell-based; settings: Table 9, peptide 0.025 μg/cm^2, no LSGS, no peptide = 100
Experimental: as §1, §2, §3, §4, §5
In the measurement of proliferation, the viable cell number at 3 days after inoculation of cells into the medium was measured.
as §6, §7
The growth rate (%) in the case where no peptide was coated was set at 100.
It should be noted that the viable cell number in the control in 3-day culturing increased about 150% during the culture and the control value (100%) was based on the viable cell number after 3-day culture.
Accordingly, when there was no increase or decrease in the cell number after 3-day culturing, the growth rate would become about 70%.

human skin fibroblasts [5] = test: Growth of human skin fibroblasts in dishes coated with silk fractions or peptides (low serum medium with LSGS, Alamer Blue viable cell number); assay type: cell-based; settings: for Growth rate (%): Table 3, gel filtration peaks of A-6, cultured for 2 days, control = 100; for growth rate relative to the growth of the control: after 2-day culture (Table 3)
[6] = Table 7, peptide concentration 0.025 μg/cm^2, 3-day culture
[7] = Table 5, synthetic peptide 0.0025%, 3-day culture
[8] = Table 5, synthetic peptide 0.025%, 3-day culture
[9] = Table 6, values of Tables 4 and 5 at higher peptide concentration (0.025%)

Row | Molecule | Cell growth rate (%) (human skin fibroblasts [1]; [6]) | Adhesion rate (%) (human skin fibroblasts [2]) | Growth rate (%) (human skin fibroblasts [4]) | Cell growth rate (%) (human skin fibroblasts [1]; [9]) | further results
1 | Tyr Tyr Tyr Tyr (YYYY; printed: Tyr Tyr Tyr Tyr) | 156% |  |  |  | 
2 | YYYYYY | 239% |  |  |  | 
3 | DEDEDE | 322% | 229% |  |  | 
4 | Glu Glu Glu Glu Glu Glu Glu Glu Glu Glu | 254% |  |  |  | 
5 | C[C@H](NC(=O)CN)C(=O)NCC(=O)N[C@@H](C)C(=O)NCC(=O)N[C@@H](CO)C(=O)NCC(=O)N[C@@H](C)C(=O)NCC(=O)N[C@@H](C)C(=O)NCC(=O)N[C@@H](CO)C(=O)NCC(=O)N[C@@H](C)C(=O)NCC(=O)N[C@@H](C)C(=O)NCC(=O)N[C@@H](Cc1ccc(O)cc1)C(=O)NCC(=O)N[C@@H](C)C(=O)NCC(=O)N[C@@H](Cc1ccc(O)cc1)C(=O)O [SfHC-1] (H-GAGAGSGAGAGSGAGAGYGAGY-OH; N-terminus and C-terminus assumed) |  |  |  |  | solubility (in words) [3]: difficult to dissolve
6 | DDGFVLDGGYDSE [AfH7] |  | 153% | 89% | 284% | Growth rate (%) (human skin fibroblasts [1]; [7]): 155 ± 5.3%; Growth rate (%) (human skin fibroblasts [1]; [8]): 284 ± 25.1%; cell growth promotion (in words) (human skin fibroblasts [1]): excellent cell growth promotion
7 | N[C@@H](CCC(=O)O)C(=O)O [Glu, glutamic acid, reference compound] | 69% |  |  |  | 
8 | EEEEEE | 346% |  |  |  | 
9 | C[C@H](NC(=O)CN)C(=O)NCC(=O)N[C@@H](C)C(=O)NCC(=O)N[C@@H](CO)C(=O)NCC(=O)N[C@@H](C)C(=O)N[C@@H](C)C(=O)N[C@@H](CO)C(=O)NCC(=O)N[C@@H](C)C(=O)NCC(=O)N[C@@H](C)C(=O)NCC(=O)N[C@@H](C)C(=O)NCC(=O)N[C@@H](C)C(=O)NCC(=O)N[C@@H](C)C(=O)NCC(=O)N[C@H](C(=O)O)[C@@H](C)O [SfHC-2] (H-GAGAGSGAASGAGAGAGAGAGT-OH; N-terminus and C-terminus assumed) |  |  |  |  | solubility (in words) [3]: difficult to dissolve
10 | VETIVLEEDPYGHEDIYEED [AfH6] |  | 135% | 77% | 264% | Growth rate (%) (human skin fibroblasts [1]; [7]): 152 ± 9.0%; Growth rate (%) (human skin fibroblasts [1]; [8]): 264 ± 9.0%; cell growth promotion (in words) (human skin fibroblasts [1]): higher cell growth promotion; also recorded: excellent cell growth promotion
11 | YGWGDGGYGSDS [AfH1] |  | 169% | 94% | 396% | Growth rate (%) (human skin fibroblasts [1]; [7]): 179 ± 13.5%; Growth rate (%) (human skin fibroblasts [1]; [8]): 396 ± 4.0%; cell growth promotion (in words) (human skin fibroblasts [1]): excellent cell growth promotion
12 | EYEYEY | 207% |  |  |  | 
13 | Glu Glu Glu Glu (EEEE; printed: Glu Glu Glu Glu) | 231% |  |  |  | 
14 | NINDFDED [A-6-6] |  |  |  |  | Growth rate (%) (human skin fibroblasts [5]): 159 ± 6.6%; growth rate relative to the growth of the control (human skin fibroblasts [5]): 1.5 fold; cell growth promotion (in words) (human skin fibroblasts [1]): showed cell growth promotion
15 | C[C@H](N)C(=O)N[C@@H](C)C(=O)N[C@@H](C)C(=O)N[C@@H](C)C(=O)N[C@@H](C)C(=O)N[C@@H](C)C(=O)N[C@@H](C)C(=O)N[C@@H](C)C(=O)N[C@@H](C)C(=O)N[C@@H](C)C(=O)O [AfH0, Ala Ala Ala Ala Ala Ala Ala Ala Ala Ala] |  |  |  |  | solubility (in words) [3]: hard to dissolve
16 | CC(C)[C@H](NC(=O)[C@H](CO)NC(=O)[C@H](CO)NC(=O)[C@H](C)NC(=O)[C@H](C)N)C(=O)N[C@@H](CO)C(=O)N[C@@H](CO)C(=O)N[C@@H](C)C(=O)N[C@@H](CO)C(=O)N[C@@H](CO)C(=O)N[C@@H](CCCNC(=N)N)C(=O)N[C@@H](CO)C(=O)N[C@@H](Cc1ccc(O)cc1)C(=O)N[C@@H](CC(=O)O)C(=O)N[C@@H](Cc1ccc(O)cc1)C(=O)N[C@@H](CO)C(=O)N[C@@H](CCCNC(=N)N)C(=O)N[C@@H](CCCNC(=N)N)C(=O)N[C@@H](CC(N)=O)C(=O)N[C@H](C(=O)N[C@@H](CCCNC(=N)N)C(=O)N[C@@H](CCCCN)C(=O)N[C@@H](CC(N)=O)C(=O)O)C(C)C [SfHE] (H-AASSVSSASSRSYDYSRRNVRKN-OH; N-terminus and C-terminus assumed) |  |  |  |  | solubility (in words) [3]: difficult to dissolve
17 | VITTDSDGNE [A-6-2] |  |  |  |  | Growth rate (%) (human skin fibroblasts [5]): 153 ± 2.7%; growth rate relative to the growth of the control (human skin fibroblasts [5]): 1.5 fold; cell growth promotion (in words) (human skin fibroblasts [1]): showed cell growth promotion
18 | EEYEEY | 212% |  |  |  | 
19 | GSSGFGPYVAHGGYSGYEYAWSSESDFGT [SfHA] |  | 205% | 159% | 316% | Growth rate (%) (human skin fibroblasts [1]; Table 4, synthetic peptide 0.0025%, 3-day culture): 321 ± 6.2%; Growth rate (%) (human skin fibroblasts [1]; Table 4, synthetic peptide 0.025%, 3-day culture): 316 ± 5.7%
20 | RRAGHDRAAGS [AfH4] |  | 151% | 96% | 133% | Growth rate (%) (human skin fibroblasts [1]; [7]): 113 ± 4.8%; Growth rate (%) (human skin fibroblasts [1]; [8]): 133 ± 8.7%
21 | SGAGGSGGYGGYGSDS [AfH2] |  | 149% | 71% | 196% | Growth rate (%) (human skin fibroblasts [1]; [7]): 118 ± 14.7%; Growth rate (%) (human skin fibroblasts [1]; [8]): 196 ± 9.4%
22 | Glu Glu | 159% |  |  |  | 
23 | Tyr Tyr | 113% |  |  |  | 
24 | DEYVDN [AfH5] |  | 234% | 108% | 344% | Growth rate (%) (human skin fibroblasts [1]; [7]): 192 ± 11.3%; Growth rate (%) (human skin fibroblasts [1]; [8]): 344 ± 7.7%; cell growth promotion (in words) (human skin fibroblasts [1]): excellent cell growth promotion
25 | GSGAGGRGDGGYGSGSS [AfH3] |  | 174% | 69% | 194% | Growth rate (%) (human skin fibroblasts [1]; [7]): 111 ± 9.0%; Growth rate (%) (human skin fibroblasts [1]; [8]): 194 ± 24.5%
